Results published in patent US20140024667A1, “FUNGICIDAL COMPOSITIONS” (SYNGENTA CROP PROTECTION LLC, priority 2005, published 2014).

How the values were obtained:
Assay type in all cases: cell-based
Fusarium culmorum = test: Fungal growth assay against Fusarium culmorum (Example B-14)
Text: (§1) A synergistic effect exists whenever the action of an active ingredient combination is greater than the sum of the actions of the individual components.
(§2) The action to be expected E for a given active ingredient combination obeys the so-called COLBY formula and can be calculated as follows (COLBY, S. R. “Calculating synergistic and antagonistic responses of herbicide combination”. Weeds, Vol. 15, pages 20-22; 1967):
(§3) ppm=milligrams of active ingredient (=a.i.) per liter of spray mixture X=% action by active ingredient A) using p ppm of active ingredient Y=% action by active ingredient B) using q ppm of active ingredient.
(§4) According to COLBY, the expected (additive) action of active ingredients A)+B) using p+q ppm of active ingredient is
(§5) If the action actually observed (O) is greater than the expected action (E), then the action of the combination is super-additive, i.e. there is a synergistic effect.
(§6) Conidia of the fungus from cryogenic storage are directly mixed into nutrient broth (PDB potato dextrose broth). After placing a (DMSO) solution of the test compounds into a microtiter plate (96-well format) the nutrient broth containing the fungal spores is added. The test plates are incubated at 24 C and the inhibition of growth is determined photometrically after 2 days. The fungicide interactions in the combinations are calculated according to the COLBY method. The data generated in this experiment indicate synergy between cyprodinil and dodine, cyprodinil and fluazinam and cyprodinil and pyribencarb when used in mixture with one another.

Botrytis cinerea = test: Fungal growth assay against Botrytis cinerea (Example B-1 a)
Text: as §1, §2, §3, §4, §5
as §6, with “after 3” for “after 2”, “and dodine” for “and dodine, cyprodinil and fluazinam”

[1] = system: Pseudocercosporella herpotrichoides var. acuformis; test: Fungal growth assay against Pseudocercosporella herpotrichoides var. acuformis (Example B-8)
Text: as §1, §2, §3, §4, §5
as §6, with “after 3” for “after 2”, “and boscalid,” for “and dodine,”, “and dodine” for “and fluazinam”

Pyrenophora teres = test: Fungal growth assay against Pyrenophora teres (Example B-5 a); details: Cyprodinil/Pyribencarb series
Text: as §1, §2, §3, §4, §5
as §6, with “The test plates are incubated at 24 C and the inhibition of growth is determined photometrically after 2 days.” left out, “and” for “and dodine, cyprodinil and fluazinam and cyprodinil and”

[2] = 4 mg/L alone, Cyprodinil/Dodine series
[3] = 8 mg/L alone, Cyprodinil/Dodine series
[4] = 16 mg/L alone, Cyprodinil/Dodine series
[5] = 0.125 mg/L alone, Cyprodinil/Dodine series
[6] = 0.25 mg/L alone, Cyprodinil/Dodine series
[7] = 0.5 mg/L alone, Cyprodinil/Dodine series
[8] = 1 mg/L alone, Cyprodinil/Dodine series
[9] = 2 mg/L alone, Cyprodinil/Dodine series
[10] = 0.125 mg/L alone, Cyprodinil/Boscalid series
[11] = 0.25 mg/L alone, Cyprodinil/Boscalid series
[12] = 0.5 mg/L alone, Cyprodinil/Boscalid series
[13] = 0.125 mg/L alone, Cyprodinil/Pyribencarb series
[14] = 0.25 mg/L alone, Cyprodinil/Pyribencarb series
[15] = 0.5 mg/L alone, Cyprodinil/Pyribencarb series
[16] = 1 mg/L alone, Cyprodinil/Pyribencarb series
[17] = 2 mg/L alone, Cyprodinil/Pyribencarb series
[18] = 4 mg/L alone, Cyprodinil/Pyribencarb series
[19] = 0.008 mg/L alone, Cyprodinil/Pyribencarb series
[20] = 0.016 mg/L alone, Cyprodinil/Pyribencarb series
[21] = 0.031 mg/L alone, Cyprodinil/Pyribencarb series

## O=[N+]([O-])c1cc(C(F)(F)F)c(Cl)c([N+](=O)[O-])c1Nc1ncc(C(F)(F)F)cc1Cl [Fluazinam]
Fusarium culmorum; 0.063 mg/L alone, Cyprodinil/Fluazinam series
  Observed control in % (% Cobs): 5.1%
Fusarium culmorum; 0.125 mg/L alone, Cyprodinil/Fluazinam series
  Observed control in % (% Cobs): 11.8%
Fusarium culmorum; 0.25 mg/L alone, Cyprodinil/Fluazinam series
  Observed control in % (% Cobs): 27.4%
Fusarium culmorum; 0.5 mg/L alone, Cyprodinil/Fluazinam series
  Observed control in % (% Cobs): 35.7%
Fusarium culmorum; 1 mg/L alone, Cyprodinil/Fluazinam series
  Observed control in % (% Cobs): 72.4%

## CCCCCCCCCCCCNC(=N)N [Dodine]
Botrytis cinerea; [2]
  Observed control in % (% Cobs): 0%
Botrytis cinerea; [3]
  Observed control in % (% Cobs): 0%
Botrytis cinerea; [4]
  Observed control in % (% Cobs): 36.3%
[1]; [5]
  Observed control in % (% Cobs): 0%
[1]; [6]
  Observed control in % (% Cobs): 0%
[1]; [7]
  Observed control in % (% Cobs): 0%
[1]; [8]
  Observed control in % (% Cobs): 0%
[1]; [9]
  Observed control in % (% Cobs): 1.4%
[1]; [2]
  Observed control in % (% Cobs): 31.3%
[1]; [3]
  Observed control in % (% Cobs): 70.5%
[1]; [4]
  Observed control in % (% Cobs): 72.4%
Fusarium culmorum; [3]
  Observed control in % (% Cobs): 3.3%
Fusarium culmorum; [4]
  Observed control in % (% Cobs): 15.1%

## O=C(Nc1ccccc1-c1ccc(Cl)cc1)c1cccnc1Cl [Boscalid]
[1]; 0.031 mg/L alone, Cyprodinil/Boscalid series
  Observed control in % (% Cobs): 0%
[1]; 0.063 mg/L alone, Cyprodinil/Boscalid series
  Observed control in % (% Cobs): 2.5%
[1]; [10]
  Observed control in % (% Cobs): 32.8%
[1]; [11]
  Observed control in % (% Cobs): 58.4%
[1]; [12]
  Observed control in % (% Cobs): 77.1%

## Cc1cc(C2CC2)nc(Nc2ccccc2)n1 [Cyprodinil, (4-cyclopropyl-6-methyl-pyrimidin-2-yl)-phenyl-amine]
Botrytis cinerea; [13]
  Observed control in % (% Cobs): 16.7%
Botrytis cinerea; [14]
  Observed control in % (% Cobs): 22.6%
Botrytis cinerea; [7]
  Observed control in % (% Cobs): 26.7%
Botrytis cinerea; [15]
  Observed control in % (% Cobs): 21.4%
Botrytis cinerea; [8]
  Observed control in % (% Cobs): 38.2%
Botrytis cinerea; [16]
  Observed control in % (% Cobs): 25.7%
Botrytis cinerea; [9]
  Observed control in % (% Cobs): 50.5%
Botrytis cinerea; [17]
  Observed control in % (% Cobs): 23.2%
Botrytis cinerea; [2]
  Observed control in % (% Cobs): 40.1%
Botrytis cinerea; [18]
  Observed control in % (% Cobs): 37.1%
Botrytis cinerea; [3]
  Observed control in % (% Cobs): 51.8%
Pyrenophora teres; 0.25 mg/L alone
  Observed control in % (% Cobs): 52.0%
Pyrenophora teres; 0.5 mg/L alone
  Observed control in % (% Cobs): 59.0%
[1]; 0.0625 mg/L alone, Cyprodinil/Boscalid series
  Observed control in % (% Cobs): 23.5%
[1]; [10]
  Observed control in % (% Cobs): 40.7%
[1]; [5]
  Observed control in % (% Cobs): 10.9%
[1]; [13]
  Observed control in % (% Cobs): 16.6%
[1]; [11]
  Observed control in % (% Cobs): 28.9%
[1]; [6]
  Observed control in % (% Cobs): 14.8%
[1]; [12]
  Observed control in % (% Cobs): 19.6%
[1]; [7]
  Observed control in % (% Cobs): 13.7%
[1]; [15]
  Observed control in % (% Cobs): 30.1%
[1]; 1 mg/L alone, Cyprodinil/Boscalid series
  Observed control in % (% Cobs): 17.5%
[1]; [8]
  Observed control in % (% Cobs): 17.9%
[1]; [16]
  Observed control in % (% Cobs): 19.3%
[1]; 2 mg/L alone, Cyprodinil/Boscalid series
  Observed control in % (% Cobs): 24.6%
[1]; [9]
  Observed control in % (% Cobs): 20.3%
[1]; [17]
  Observed control in % (% Cobs): 21.5%
[1]; 4 mg/L alone, Cyprodinil/Boscalid series
  Observed control in % (% Cobs): 33.6%
[1]; [2]
  Observed control in % (% Cobs): 25.9%
[1]; [18]
  Observed control in % (% Cobs): 27.2%
[1]; [3]
  Observed control in % (% Cobs): 33.6%
[1]; [4]
  Observed control in % (% Cobs): 46.2%
Fusarium culmorum; 2 mg/L alone, Cyprodinil/Fluazinam series
  Observed control in % (% Cobs): 0%
Fusarium culmorum; [2]
  Observed control in % (% Cobs): 0%
Fusarium culmorum; 4 mg/L alone, Cyprodinil/Fluazinam series
  Observed control in % (% Cobs): 0%
Fusarium culmorum; [3]
  Observed control in % (% Cobs): 0%
Fusarium culmorum; 8 mg/L alone, Cyprodinil/Fluazinam series
  Observed control in % (% Cobs): 0%
Fusarium culmorum; 8 mg/L alone, Cyprodinil/Pyribencarb series
  Observed control in % (% Cobs): 2.4%
Fusarium culmorum; [4]
  Observed control in % (% Cobs): 6.7%
Fusarium culmorum; 16 mg/L alone, Cyprodinil/Fluazinam series
  Observed control in % (% Cobs): 9.8%
Fusarium culmorum; 16 mg/L alone, Cyprodinil/Pyribencarb series
  Observed control in % (% Cobs): 8.4%
Fusarium culmorum; 32 mg/L alone, Cyprodinil/Dodine series
  Observed control in % (% Cobs): 26.9%
Fusarium culmorum; 32 mg/L alone, Cyprodinil/Fluazinam series
  Observed control in % (% Cobs): 16.4%
Fusarium culmorum; 32 mg/L alone, Cyprodinil/Pyribencarb series
  Observed control in % (% Cobs): 21.7%

## COC(=O)NCc1cc(/C(C)=N/OCc2cccc(C)n2)ccc1Cl [Pyribencarb]
Botrytis cinerea; [19]
  Observed control in % (% Cobs): 0.4%
Botrytis cinerea; [20]
  Observed control in % (% Cobs): 0%
Botrytis cinerea; [21]
  Observed control in % (% Cobs): 3.3%
Botrytis cinerea; 0.063 mg/L alone, Cyprodinil/Pyribencarb series
  Observed control in % (% Cobs): 2.6%
Botrytis cinerea; [13]
  Observed control in % (% Cobs): 16.4%
Pyrenophora teres; 0.004 mg/L alone
  Observed control in % (% Cobs): 0%
Pyrenophora teres; 0.008 mg/L alone
  Observed control in % (% Cobs): 0%
Pyrenophora teres; 0.016 mg/L alone
  Observed control in % (% Cobs): 0%
Pyrenophora teres; 0.031 mg/L alone
  Observed control in % (% Cobs): 0%
Pyrenophora teres; 0.063 mg/L alone
  Observed control in % (% Cobs): 17.0%
[1]; [19]
  Observed control in % (% Cobs): 16.2%
[1]; [20]
  Observed control in % (% Cobs): 40.1%
[1]; [21]
  Observed control in % (% Cobs): 61.1%
Fusarium culmorum; [13]
  Observed control in % (% Cobs): 0%
Fusarium culmorum; [14]
  Observed control in % (% Cobs): 8.7%
Fusarium culmorum; [15]
  Observed control in % (% Cobs): 11.5%
Fusarium culmorum; [16]
  Observed control in % (% Cobs): 16.2%
